Reference: patent publication US9695155B2, “Herbicidal substituted pyrimidinyloxy benzene compounds” (E. I. DU PONT DE NEMOURS AND COMPANY, priority 2013, dated 2017)

Experiments:
barnyardgrass [1] = assay: Test A preemergence; format: in vivo, Echinochloa crus-galli; conditions: for Barnyardgrass plant response rating (0 to 100 scale, 0 is no effect, 100 is complete control): 125 g ai/ha; for Barnyardgrass plant response rating: 500 g ai/ha, 0 to 100 scale where 0 is no effect and 100 is complete control
Summary of the method: (§1)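 Visual 0–100 rating (100 = complete control) taken about 10 d post-treatment relative to untreated checks. Preemergence: directed soil spray on sown loam/sand pots. Postemergence: seedlings 2–10 cm, 1–2 leaf. Non-phytotoxic solvent formulation with surfactant.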

large (Lg) crabgrass [2] = assay: Test A preemergence; format: in vivo, Digitaria sanguinalis; conditions: for Crabgrass, Large plant response rating (0 to 100 scale): 125 g ai/ha; for Crabgrass, Large plant response rating: 500 g ai/ha, 0 to 100 scale where 0 is no effect and 100 is complete control
Summary of the method: as §1

giant foxtail [3] = assay: Test A preemergence; format: in vivo, Setaria faberii; conditions: for Foxtail, Giant plant response rating (0 to 100 scale): 125 g ai/ha; for Foxtail, Giant plant response rating: 500 g ai/ha, 0 to 100 scale where 0 is no effect and 100 is complete control
Summary of the method: as §1

morningglory [4] = assay: Test A preemergence; format: in vivo, Ipomoea spp.; conditions: for Morningglory plant response rating (0 to 100 scale): 125 g ai/ha; for Morningglory plant response rating: 500 g ai/ha, 0 to 100 scale where 0 is no effect and 100 is complete control
Summary of the method: as §1

pigweed [5] = assay: Test A preemergence; format: in vivo, Amaranthus retroflexus; conditions: for Pigweed plant response rating (0 to 100 scale): 125 g ai/ha; for Pigweed plant response rating: 500 g ai/ha, 0 to 100 scale where 0 is no effect and 100 is complete control
Summary of the method: as §1

velvetleaf [6] = assay: Test A preemergence; format: in vivo, Abutilon theophrasti; conditions: for Velvetleaf plant response rating (0 to 100 scale): 125 g ai/ha; for Velvetleaf plant response rating: 500 g ai/ha, 0 to 100 scale where 0 is no effect and 100 is complete control
Summary of the method: as §1

wheat [7] = assay: Test A preemergence; format: in vivo, Triticum aestivum; conditions: for Wheat plant response rating (0 to 100 scale): 125 g ai/ha; for Wheat plant response rating: 500 g ai/ha, 0 to 100 scale where 0 is no effect and 100 is complete control
Summary of the method: as §1

corn [8] = assay: Test A preemergence; format: in vivo, Zea mays; conditions: for Corn plant response rating (0 to 100 scale): 125 g ai/ha; for Corn plant response rating: 500 g ai/ha, 0 to 100 scale where 0 is no effect and 100 is complete control
Summary of the method: as §1

barnyardgrass [9] = assay: Test A postemergence; format: in vivo, Echinochloa crus-galli
Summary of the method: as §1

large (Lg) crabgrass [10] = assay: Test A postemergence; format: in vivo, Digitaria sanguinalis
Summary of the method: as §1

giant foxtail [11] = assay: Test A postemergence; format: in vivo, Setaria faberii
Summary of the method: as §1

morningglory [12] = assay: Test A postemergence; format: in vivo, Ipomoea spp.
Summary of the method: as §1

pigweed [13] = assay: Test A postemergence; format: in vivo, Amaranthus retroflexus
Summary of the method: as §1

velvetleaf [14] = assay: Test A postemergence; format: in vivo, Abutilon theophrasti
Summary of the method: as §1

wheat [15] = assay: Test A postemergence; format: in vivo, Triticum aestivum
Summary of the method: as §1

corn [16] = assay: Test A postemergence; format: in vivo, Zea mays
Summary of the method: as §1

rice = assay: Test B flooded paddy test; format: in vivo, Oryza sativa; conditions: Flood, 250 g ai/ha; 0 to 100 scale where 0 is no effect and 100 is complete control
Summary of the method: (§2)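 Plants were grown to the 2-leaf stage, then pots were flooded to 3 cm above the soil and compounds were applied directly into the paddy water. That depth was held throughout, and after 13 to 15 days in the greenhouse injury was rated visually against controls on a 0–100 scale (0 no effect, 100 complete control).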

sedge, umbrella = assay: Test B flooded paddy test; format: in vivo, Cyperus difformis; conditions: Flood, 250 g ai/ha; 0 to 100 scale where 0 is no effect and 100 is complete control
Summary of the method: as §2

Heteranthera limosa = assay: Test B flooded paddy test; format: in vivo; conditions: Flood, 250 g ai/ha; 0 to 100 scale where 0 is no effect and 100 is complete control
Summary of the method: as §2

barnyardgrass [17] = assay: Test B flooded paddy test; format: in vivo, Echinochloa crus-galli; conditions: Flood, 250 g ai/ha; 0 to 100 scale where 0 is no effect and 100 is complete control
Summary of the method: as §2

[18] = 125 g ai/ha, 0 to 100 scale where 0 is no effect and 100 is complete control
[19] = 500 g ai/ha, 0 to 100 scale where 0 is no effect and 100 is complete control
[20] = 125 g ai/ha, 0 to 100 scale, 0 no effect, 100 complete control

| Compound | Barnyardgrass plant response rating (0 to 100 scale, 0 is no effect, 100 is complete control) (barnyardgrass [1]) | Barnyardgrass plant response rating (barnyardgrass [1]) | Crabgrass, Large plant response rating (0 to 100 scale) (large (Lg) crabgrass [2]) | Crabgrass, Large plant response rating (large (Lg) crabgrass [2]) | Foxtail, Giant plant response rating (0 to 100 scale) (giant foxtail [3]) | Foxtail, Giant plant response rating (giant foxtail [3]) | Morningglory plant response rating (0 to 100 scale) (morningglory [4]) | Morningglory plant response rating (morningglory [4]) | Pigweed plant response rating (0 to 100 scale) (pigweed [5]) | Pigweed plant response rating (pigweed [5]) | Velvetleaf plant response rating (0 to 100 scale) (velvetleaf [6]) | Velvetleaf plant response rating (velvetleaf [6]) | Wheat plant response rating (0 to 100 scale) (wheat [7]) | Wheat plant response rating (wheat [7]) | Corn plant response rating (0 to 100 scale) (corn [8]) | Corn plant response rating (corn [8]) | Plant response rating, Barnyardgrass (barnyardgrass [9]; [19]) | Plant response rating, Crabgrass, Large (large (Lg) crabgrass [10]; [19]) | Plant response rating, Foxtail, Giant (giant foxtail [11]; [19]) | Plant response rating, Morningglory (morningglory [12]; [19]) | other results |
| --- | --- | --- | --- | --- | --- | --- | --- | --- | --- | --- | --- | --- | --- | --- | --- | --- | --- | --- | --- | --- | --- |
| O=[N+]([O-])c1cnc(Oc2ccccc2-n2cc(Br)cn2)nc1 [Compound 225] | 0 | 0 | 0 | 0 | 0 | 0 | 0 | 0 | 0 | 0 | 0 | 0 | 0 | 0 | 0 | 0 | 10 | 10 | 0 | 0 | Barnyardgrass plant response rating (barnyardgrass [9]; [18]): 0; Crabgrass, Large plant response rating (large (Lg) crabgrass [10]; [18]): 0; Foxtail, Giant plant response rating (giant foxtail [11]; [18]): 0; Morningglory plant response rating (morningglory [12]; [18]): 0; Pigweed plant response rating (pigweed [13]; [18]): 0; Plant response rating, Pigweed (pigweed [13]; [19]): 0; Velvetleaf plant response rating (velvetleaf [14]; [18]): 0; Plant response rating, Velvetleaf (velvetleaf [14]; [19]): 0; Wheat plant response rating (wheat [15]; [18]): 0; Plant response rating, Wheat (wheat [15]; [19]): 0; Corn plant response rating (corn [16]; [18]): 0; Plant response rating, Corn (corn [16]; [19]): 0; Plant response rating, Rice (rice): 0; Plant response rating, Sedge, Umbrella (sedge, umbrella): 0; Plant response rating, Ducksalad (Heteranthera limosa): 0; Plant response rating, Barnyardgrass (barnyardgrass [17]): 0 |
| N#Cc1cccc(Oc2ncc(Cl)cn2)c1-n1cc(Br)cn1 [Compound 235] | 0 | 10 | 70 | 100 | 30 | 100 | 0 | 0 | 90 | 100 | 0 | 0 | 0 | 0 | 0 | 0 | 0 | 30 | 30 | 30 | Barnyardgrass plant response rating (barnyardgrass [9]; [18]): 0; Crabgrass, Large plant response rating (large (Lg) crabgrass [10]; [18]): 10; Foxtail, Giant plant response rating (giant foxtail [11]; [18]): 0; Morningglory plant response rating (morningglory [12]; [18]): 30; Pigweed plant response rating (pigweed [13]; [18]): 90; Plant response rating, Pigweed (pigweed [13]; [19]): 100; Velvetleaf plant response rating (velvetleaf [14]; [18]): 30; Plant response rating, Velvetleaf (velvetleaf [14]; [19]): 30; Wheat plant response rating (wheat [15]; [18]): 0; Plant response rating, Wheat (wheat [15]; [19]): 0; Corn plant response rating (corn [16]; [18]): 0; Plant response rating, Corn (corn [16]; [19]): 0; Plant response rating, Rice (rice): 0; Plant response rating, Sedge, Umbrella (sedge, umbrella): 0; Plant response rating, Ducksalad (Heteranthera limosa): 0; Plant response rating, Barnyardgrass (barnyardgrass [17]): 0 |
| N#Cc1cnn(-c2c(C=O)cccc2Oc2ncc(Cl)cn2)c1 [Compound 237] | 0 | 10 | 0 | 10 | 0 | 0 | 0 | 0 | 0 | 80 | 0 | 10 | 0 | 0 | 0 | 0 | 0 | 0 | 0 | 0 | Barnyardgrass plant response rating (barnyardgrass [9]; [18]): 0; Crabgrass, Large plant response rating (large (Lg) crabgrass [10]; [18]): 0; Foxtail, Giant plant response rating (giant foxtail [11]; [18]): 0; Morningglory plant response rating (morningglory [12]; [18]): 0; Pigweed plant response rating (pigweed [13]; [18]): 30; Plant response rating, Pigweed (pigweed [13]; [19]): 70; Velvetleaf plant response rating (velvetleaf [14]; [18]): 20; Plant response rating, Velvetleaf (velvetleaf [14]; [19]): 30; Wheat plant response rating (wheat [15]; [18]): 0; Plant response rating, Wheat (wheat [15]; [19]): 0; Corn plant response rating (corn [16]; [18]): 0; Plant response rating, Corn (corn [16]; [19]): 0; Plant response rating, Rice (rice): 0; Plant response rating, Sedge, Umbrella (sedge, umbrella): 0; Plant response rating, Ducksalad (Heteranthera limosa): 0; Plant response rating, Barnyardgrass (barnyardgrass [17]): 0 |
| N#Cc1cc(F)cc(Oc2ncc(Br)cn2)c1-n1cc(Br)cn1 [Compound 239] | 20 | 100 | 100 | 100 | 90 | 100 | 0 | 30 | 100 | 100 | 10 | 20 | 0 | 20 | 0 | 10 | 80 | 70 | 70 | 40 | Barnyardgrass plant response rating (barnyardgrass [9]; [18]): 0; Crabgrass, Large plant response rating (large (Lg) crabgrass [10]; [18]): 10; Foxtail, Giant plant response rating (giant foxtail [11]; [18]): 20; Morningglory plant response rating (morningglory [12]; [18]): 40; Pigweed plant response rating (pigweed [13]; [18]): 90; Plant response rating, Pigweed (pigweed [13]; [19]): 100; Velvetleaf plant response rating (velvetleaf [14]; [18]): 50; Plant response rating, Velvetleaf (velvetleaf [14]; [19]): 60; Wheat plant response rating (wheat [15]; [18]): 0; Plant response rating, Wheat (wheat [15]; [19]): 0; Corn plant response rating (corn [16]; [18]): 0; Plant response rating, Corn (corn [16]; [19]): 20; Plant response rating, Rice (rice): 30; Plant response rating, Sedge, Umbrella (sedge, umbrella): 70; Plant response rating, Ducksalad (Heteranthera limosa): 65; Plant response rating, Barnyardgrass (barnyardgrass [17]): 0 |
| Brc1cnn(-c2ccccc2Oc2ncccn2)c1 [Compound 275] | 0 | 0 | 0 | 70 | 0 | 70 | 0 | 0 | 80 | 90 | 20 | 60 | 0 | 0 | 0 | 0 | 0 | 20 | 30 | 50 | Plant response rating, Barnyardgrass (barnyardgrass [9]; [20]): 0; Plant response rating, Crabgrass, Large (large (Lg) crabgrass [10]; [20]): 0; Plant response rating, Foxtail, Giant (giant foxtail [11]; [20]): 0; Plant response rating, Morningglory (morningglory [12]; [20]): 10; Plant response rating, Pigweed (pigweed [13]; [20]): 80; Plant response rating, Pigweed (pigweed [13]; [19]): 90; Plant response rating, Velvetleaf (velvetleaf [14]; [20]): 60; Plant response rating, Velvetleaf (velvetleaf [14]; [19]): 90; Plant response rating, Wheat (wheat [15]; [20]): 0; Plant response rating, Wheat (wheat [15]; [19]): 0; Plant response rating, Corn (corn [16]; [20]): 0; Plant response rating, Corn (corn [16]; [19]): 0; Plant response rating, Rice (rice): 15; Plant response rating, Sedge, Umbrella (sedge, umbrella): 0; Plant response rating, Ducksalad (Heteranthera limosa): 30; Plant response rating, Barnyardgrass (barnyardgrass [17]): 15 |
